According to US11826324B2, “Pharmaceutical compositions for preventing or treating inflammatory disease, autoimmune disease, or combination thereof, and method for using same” (INDUSTRY-ACADEMIC COOPERATION FOUNDATION, YONSEI UNIVERSITY, priority 2017, dated 2023):

What was measured:
[1] = tested on: TNF-α production in THP-1 cells; assay: Inhibition of tumor necrosis factor-alpha production in THP-1 cell line (ELISA); type: cell-based, human; details: for amount of TNF-α produced in THP-1 cells, Average: PMA 25 ng/ml 24 h, then LPS, 24 h, No Drug control 5250; for production of TNF-α in cells (THP-1), result in words: FIG. 2A and Table 1
Method: The human THP-1 cell line (ATCC) was prepared and cultured at a temperature of 37° C. and under 5% CO2.
Prepared THP-1 cells were inoculated onto a 96-well plate at the density of 1×10^5, and HL-156A, HL-156B, HL-156C, HL-156D, HL-156E, and HL-156F (all produced by Hanoi BioPharma Inc.) were added at the concentration of 1 μM or 10 μM to the cell culture solution. Thereafter, 25 ng/ml of phorbol 12-myristate 13-acetate (PMA, Sigma-Aldrich) was added to the cell culture solution, and cells were cultured for 24 hours, and then, lipopolysaccharide (LPS) was added thereto to induce an immune response of THP-1 cell. As a negative control, a group in which LPS was not added or a group in which
LPS was added but no drug was added, were used.
THP-1 cells were cultured for 24 hours, and then, the amount of tumor necrosis factor-alpha (TNF-α) in the culture solution by using TNF ELISA kit (Invitrogen) was measured.

[2] = tested on: TNF-α production in MH7A cells; assay: Inhibition of tumor necrosis factor-alpha production in synoviocyte MH7A (ELISA); type: cell-based, human; details: for amount of TNF-α in MH7A culture solution, Average: LPS, 24 h, control 1 (HL156A series), 3.53 (HL156B series); for production of TNF-α in the cells (MH7A), result in words: 0.1, 1, 10 μM, Table 2 and FIG. 2B
Method: Human synoviocyte cell line MH7A (provided by Prof. Kim Wan-wook of Catholic University) was prepared and cultured at a temperature of 37° C. and under 5% CO2.
The prepared MH7A cells were inoculated onto a 96-well plate at the density of 3×10^4 cells, and lipopolysaccharide (LPS) was added thereto to induce the immune response of MH7A cells. Then, HL-156A or HL-156B was added at a concentration of 0.1 μM, 1 μM, or 10 μM to the cell culture solution. As a negative control, a group in which LPS was used but no drug was used, was used.
After MH7A cells were cultured for 24 hours, the amount of TNF-α in the culture solution was measured by using a TNF-α ELISA kit (Peprotach).

CD8 T cell = assay: Effect on T cell activation in vitro: proliferation of CD8 T cell (CTV, flow cytometry); type: cell-based, C57BL/6 mice; details: T cells activated 3 days with anti-CD3/28 Dynabeads; HL-156A 5, 15, 45 or 135 μM and/or 20 nM rapamycin; FIG. 1B
Description: (§1) The spleen was harvested from normal C57BL/6 mice (Orient Bio) and the mixture obtained by adding a RPMI solution containing 2% (v/v) fetal bovine serum (FBS) to the spleen tissues was homogenized by using a 40 μm strainer.
(§2) T cells were isolated from the homogenized spleen tissue by using CD90.2 magnetic beads (Miltenyi Biotec). Isolated T cells were labeled using CellTrace™ Violet (CTV). Subsequently, labeled T cells were activated for 3 days by using anti-CD3/28 Dynabeads®.
(§3) During T cells were activated, 5 μM, 15 μM, 45 μM, or 135 μM HL-156A (Hanoi BioPharma Inc.), and/or 20 nM rapamycin (LC Laboratories) were added to identify the effect of HL-156A, or the combination of HL-156A and rapamycin on the proliferation of T cells. […]
(§4) Activated T cells were immunostained by using allophycocyanin (APC)-labeled anti-CD4 antibody (BD Biosciences) and peridinin chlorophyll protein complex (PerCP)-labeled anti-CD8 antibody (eBioscience). Immunostained T cells were analyzed by flow cytometric analysis to identify the surface molecular phenotype thereof. From the results obtained by flow cytometric analysis, the proliferation ratio (%) of the T cell with respect to a material treated on the T cell was calculated, and the proliferation ratio (%) of CD4 T cell and the proliferation ratio (%) of CD8 T cell with respect to a compound are shown in FIGS. 1A and 1B, respectively.

CD4 T cell = assay: Effect on T cell activation in vitro: proliferation of CD4 T cell (CTV, flow cytometry); type: cell-based, C57BL/6 mice; details: T cells activated 3 days with anti-CD3/28 Dynabeads; HL-156A 5, 15, 45 or 135 μM and/or 20 nM rapamycin; FIG. 1A
Description: as §1, §2, §3, §4

[3] = tested on: collagen-induced arthritis mouse model; assay: Collagen-induced arthritis mouse model, arthritis score; type: in vivo, DBA/1 mouse; details: 60 mg/kg intraperitoneally once every two days; mice with average arthritis score of 8; FIG. 5
Method: Bovine Type II collagen was dissolved in complete freund's adjuvant (CFA) containing 250 μg per mouse of heat-sterilized Mycobacterium tuberculosis H37Ra (BD Sciences) to prepare a collagen solution.
DBA/1 mouse was immunized by intradermally injecting […] per mouse of the prepared collagen thereinto. On day 21 after the immunization, bovine Type II collagen dissolved in incomplete freund's adjuvant (IFA) was injected subcutaneously into the tail of a mouse in an amount of 100 μg to boost the immune system.
The arthritis score of mice was measured using the following criteria:
Grade 0: swelling or erythema;
Grade 1: mild swelling and erythema, inflammation of the toes;
Grade 2: moderate swelling and erythema confined to the distal to mid-limbs;
Grade 3: extended to the ankle, clear swelling and erythema; and
Grade 4: Severe swelling, erythema, and joint stiffness of ankle, foot, and toes.
A score of 0 to 4 was assigned to each leg, and a maximum of 16 points of arthritis scores were assigned to each mouse.
Mice with an average arthritis score of 8 were randomly selected. The HL-156A compound was diluted in PBS and administered to the selected mice intraperitoneally once every two days with 60 mg/kg body weight of HL-156A compound.

[4] = tested on: virus-specific CD8+ T cell (GP33+CD8 T cell); set-up: species or system C57BL/6 mouse; details: mouse, in vivo

Row | Compound | amount of TNF-α produced in THP-1 cells, Average ([1]; 1 μM compound) [pg/mL] | amount of TNF-α produced in THP-1 cells, Average ([1]; 10 μM compound) [pg/mL] | production of TNF-α in cells (THP-1), result in words [1] | amount of TNF-α in MH7A culture solution, Average ([2]; 0.1 μM compound) | amount of TNF-α in MH7A culture solution, Average ([2]; 1 μM compound) | amount of TNF-α in MH7A culture solution, Average ([2]; 10 μM compound) | production of TNF-α in the cells (MH7A), result in words [2] | proliferation of CD8 T cell (CD8 T cell) | proliferation of CD4 T cell (CD4 T cell) | arthritis score over time [3] | differentiation of TCM cells and TEM cells in PBMCs [4] | proliferation of TEFF cells in PBMCs [4]
1 | N=C(NC(=N)N1CCCC1)Nc1ccc(OC(F)(F)F)cc1 [HL-156A, N1-pyrrolidine-N5-(4-trifluoromethoxy)phenyl biguanide] | 6750 | 3025 | inhibited the production of TNF-α | 0.82 | 0.75 | 0.72 | inhibited the production of TNF-α in a concentration-dependent manner | significantly inhibited | significantly inhibited | decreased the arthritis score over time | inhibited | promoted
2 | N=C(NC(=N)N1CCCC1)Nc1ccc(C(F)(F)F)cc1 [HL-156B, N1-pyrrolidine-N5-(4-trifluoromethyl)phenyl biguanide] | 6125 | 2875 | inhibited the production of TNF-α | 3.11 | 2.56 | 2.17 | inhibited the production of TNF-α in a concentration-dependent manner | – | – | – | – | –
3 | N=C(NC(=N)N1CCCCC1)Nc1ccc(F)cc1 [HL-156C, N1-piperidine-N5-(4-fluoro)phenyl biguanide] | 4825 | 6375 | – | – | – | – | – | – | – | – | – | –
4 | N=C(NC(=N)N1CCCCC1)Nc1ccc(-c2nnn[nH]2)cc1 [HL-156D, N1-piperidine-N5-(4-(1H-tetrazole-5-yl))phenyl biguanide] | 6125 | 5150 | – | – | – | – | – | – | – | – | – | –
5 | N=C(NC(=N)N1CCCC1)Nc1ccc(Cl)c(Cl)c1 [HL-156E, N1-pyrrolidine-N5-(3,4-dichloro)phenyl biguanide] | 4725 | 1925 | inhibited the production of TNF-α | – | – | – | – | – | – | – | – | –
6 | COc1cc(NC(=N)NC(=N)N2CCCCC2)cc(OC)c1 [HL-156F, N1-piperidine-N5-(3,5-dimethoxy)phenyl biguanide] | 6425 | 4650 | inhibited the production of TNF-α | – | – | – | – | – | – | – | – | –
